According to ChEMBL document CHEMBL5727152, “Ethyldiamine orexin receptor antagonists” (2018):

Target: T1, Orexin receptor type 2 (Homo sapiens, UniProt O43614)
T1 sequence (O43614 whole entry): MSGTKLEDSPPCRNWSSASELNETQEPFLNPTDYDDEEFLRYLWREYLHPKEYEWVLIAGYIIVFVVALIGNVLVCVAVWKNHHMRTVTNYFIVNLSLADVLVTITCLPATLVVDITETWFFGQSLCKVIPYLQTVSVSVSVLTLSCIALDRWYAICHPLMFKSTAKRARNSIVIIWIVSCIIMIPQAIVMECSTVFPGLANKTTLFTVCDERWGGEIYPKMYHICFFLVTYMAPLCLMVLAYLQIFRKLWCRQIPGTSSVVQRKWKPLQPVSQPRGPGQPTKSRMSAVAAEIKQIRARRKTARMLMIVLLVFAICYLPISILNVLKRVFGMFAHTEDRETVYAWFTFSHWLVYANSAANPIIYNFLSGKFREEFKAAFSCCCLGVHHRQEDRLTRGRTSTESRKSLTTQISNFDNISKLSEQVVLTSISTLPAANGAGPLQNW
Assay: FLIPR Ca2+ Flux Assay: In a typical experiment the OX1 and OX2 receptor antagonistic activity of the compounds of the present invention was determined in accordance with the following experimental method. For intracellular calcium measurements, Chinese hamster ovary (CHO) cells expressing the rat orexin-1 receptor or the human orexin-2 receptor, are grown in Iscove's modified DMEM containing 2 mM L-glutamine, […], 1% hypoxanthine-thymidine supplement, 100 U/ml penicillin, 100 μg/ml streptomycin and 10% heat-inactivated fetal calf serum (FCS). The cells are seeded at 20,000 cells/well into Becton-Dickinson black 384-well clear bottom sterile plates coated with poly-D-lysine. All reagents were from GIBCO-Invitrogen Corp. The seeded plates are incubated overnight at 37° C. and 5% CO2. Ala-6,12 human orexin-A as the agonist is prepared as a 1 mM stock solution in 1% bovine serum albumin (BSA) and diluted in assay buffer (HBSS containing 20 mM HEPES, 0.1% BSA and 2.5 mM probenecid, pH7.4) for use in the assay at a final concentration of 70 pM. Test compounds are prepared as 10 mM stock solution in DMSO, then diluted in 384-well plates, first in DMSO, then assay buffer. On the day of the assay, cells are washed 3 times with 100 μl assay buffer and then incubated for 60 min (37° C., 5% CO2) in 60 μl assay buffer containing 1 μM Fluo-4AM ester, 0.02% pluronic acid, and 1% BSA. […]
Format: cell-based

SMILES: CN(CCN(CC(F)(F)F)C(=O)c1ccccc1-n1nccn1)c1cc(C#N)ccn1
- IC50: 0.113 µM
